Reference: patent US9723840B2 (SYNGENTA PARTICIPATIONS AG, priority 2013, dated 2017)

How the values were obtained:
Type in all cases: in vivo
Setaria faberi [1] = experiment: Post-emergence herbicidal activity, SETFA; set-up: key: 5=total damage to plant; 0=no damage to plant; details: 1000 g/Ha, post-emergence spray (8 days cultivation), evaluated after 13 days, scale 0-5
Description: (§1) Seeds of a variety of test species were sown in standard soil in pots. After 8 days cultivation (post-emergence) under controlled conditions in a glasshouse (at 24/16° C., day/night; 14 hours light; 65% humidity), the plants were sprayed with an aqueous spray solution derived from the formulation of the technical active ingredient in acetone/water (50:50) solution containing 0.5% Tween 20 (polyoxyethelyene sorbitan monolaurate, CAS RN 9005-64-5). The test plants were then grown in a glasshouse under controlled conditions (at 24/16° C., day/night; 14 hours light; 65% humidity) and watered twice daily. After 13 days, the test was evaluated (5=total damage to plant; 0=no damage to plant).

Echinochloa crus-galli [2] = experiment: Pre-emergence herbicidal activity, ECHCG; set-up: key: 5=total damage to plant; 0=no damage to plant; details: 1000 g/Ha, pre-emergence spray, evaluated after 13 days, scale 0-5
Description: as §1, with “After” for “After 8 days”, “for one day (pre-emergence)” for “(post-emergence)”

Abutilon theophrasti [3] = experiment: Pre-emergence herbicidal activity, ABUTH; set-up: key: 5=total damage to plant; 0=no damage to plant; details: 1000 g/Ha, pre-emergence spray, evaluated after 13 days, scale 0-5
Description: as §1, with “After” for “After 8 days”, “for one day (pre-emergence)” for “(post-emergence)”

Setaria faberi [4] = experiment: Pre-emergence herbicidal activity, SETFA; set-up: key: 5=total damage to plant; 0=no damage to plant; details: 1000 g/Ha, pre-emergence spray, evaluated after 13 days, scale 0-5
Description: as §1, with “After” for “After 8 days”, “for one day (pre-emergence)” for “(post-emergence)”

Alopecurus myosuroides [5] = experiment: Post-emergence herbicidal activity, ALOMY; set-up: key: 5=total damage to plant; 0=no damage to plant; details: 1000 g/Ha, post-emergence spray (8 days cultivation), evaluated after 13 days, scale 0-5
Description: as §1

Zea mays [6] = experiment: Pre-emergence herbicidal activity, ZEAMX; details: 1000 g/Ha, pre-emergence spray, evaluated after 13 days, scale 0-5
Description: as §1, with “After” for “After 8 days”, “for one day (pre-emergence)” for “(post-emergence)”

Abutilon theophrasti [7] = experiment: Post-emergence herbicidal activity, ABUTH; set-up: key: 5=total damage to plant; 0=no damage to plant; details: 1000 g/Ha, post-emergence spray (8 days cultivation), evaluated after 13 days, scale 0-5
Description: as §1

Echinochloa crus-galli [8] = experiment: Post-emergence herbicidal activity, ECHCG; set-up: key: 5=total damage to plant; 0=no damage to plant; details: 1000 g/Ha, post-emergence spray (8 days cultivation), evaluated after 13 days, scale 0-5
Description: as §1

Alopecurus myosuroides [9] = experiment: Pre-emergence herbicidal activity, ALOMY; details: 1000 g/Ha, pre-emergence spray, evaluated after 13 days, scale 0-5
Description: as §1, with “After” for “After 8 days”, “for one day (pre-emergence)” for “(post-emergence)”

Zea mays [10] = experiment: Post-emergence herbicidal activity, ZEAMX; set-up: key: 5=total damage to plant; 0=no damage to plant; details: 1000 g/Ha, post-emergence spray (8 days cultivation), evaluated after 13 days, scale 0-5
Description: as §1

Amaranthus retroflexus [11] = experiment: Pre-emergence herbicidal activity, AMARE; set-up: key: 5=total damage to plant; 0=no damage to plant; details: 1000 g/Ha, pre-emergence spray, evaluated after 13 days, scale 0-5
Description: as §1, with “After” for “After 8 days”, “for one day (pre-emergence)” for “(post-emergence)”

Amaranthus retroflexus [12] = experiment: Post-emergence herbicidal activity, AMARE; set-up: key: 5=total damage to plant; 0=no damage to plant; details: 1000 g/Ha, post-emergence spray (8 days cultivation), evaluated after 13 days, scale 0-5
Description: as §1

Row | Compound | SETFA damage score, application post-emergence (Setaria faberi [1]) | ECHCG damage score, application pre-emergence (Echinochloa crus-galli [2]) | ABUTH damage score, application pre-emergence (Abutilon theophrasti [3]) | SETFA damage score, application pre-emergence (Setaria faberi [4]) | ALOMY damage score, application post-emergence (Alopecurus myosuroides [5]) | ZEAMX damage score, application pre-emergence (Zea mays [6]) | ABUTH damage score, application post-emergence (Abutilon theophrasti [7]) | ECHCG damage score, application post-emergence (Echinochloa crus-galli [8]) | ALOMY damage score, application pre-emergence (Alopecurus myosuroides [9]) | ZEAMX damage score, application post-emergence (Zea mays [10]) | AMARE damage score, application pre-emergence (Amaranthus retroflexus [11]) | AMARE damage score, application post-emergence (Amaranthus retroflexus [12])
1 | CC1C(O)N(c2cc(C(C)(F)F)c(Cl)nn2)C(=O)N1C (stereo not drawn) [Example A11] | 5 | 5 | 5 | 5 | 5 | 4 | 5 | 5 | 4 | 5 | 5 | 5
2 | CCOC1C(O)N(c2cc(C(C)(F)F)c(Cl)nn2)C(=O)N1C (stereo not drawn) [Example A10] | 5 | 4 | 5 | 5 | 5 | 4 | 5 | 5 | 4 | 4 | 5 | 5
3 | CC1C(O)N(c2cc(C(C)(C)F)c(Cl)nn2)C(=O)N1C (stereo not drawn) [Example A2, 1-[6-chloro-5-(1-fluoro-1-methyl-ethyl)pyridazin-3-yl]-5-hydroxy-3,4-dimethyl-imidazolidin-2-one] | 5 | 4 | 5 | 5 | 4 | 3 | 5 | 5 | 4 | 5 | 5 | 5
4 | CC1C(O)N(c2ccc(C(=O)NC(C)(C)C)nn2)C(=O)N1C (stereo not drawn) [Example A15] | 5 | 5 | 5 | 4 | 5 | 3 | 5 | 5 | 4 | 5 | 5 | 5
5 | CCOC1C(O)N(c2cc(C(C)(C)F)c(Cl)nn2)C(=O)N1C (stereo not drawn) [Example A9, 1-[6-chloro-5-(1-fluoro-1-methyl-ethyl)pyridazin-3-yl]-4-ethoxy-5-hydroxy-3-methyl-imidazolidin-2-one] | 5 | 5 | 5 | 5 | 5 | 3 | 5 | 5 | 4 | 5 | 5 | 5
6 | CN1CC(O)N(c2cc(C(F)(F)F)cnn2)C1=O (stereo not drawn) [Example A7, 4-hydroxy-1-methyl-3-[5-(trifluoromethyl)pyridazin-3-yl]imidazolidin-2-one] | 5 | 5 | 5 | 5 | 5 | 2 | 5 | 5 | 4 | 5 | 5 | 5
7 | CN1CC(O)N(c2cc(C(F)(F)F)c(Cl)nn2)C1=O (stereo not drawn) [Example A5, 3-[6-chloro-5-(trifluoromethyl)pyridazin-3-yl]-4-hydroxy-1-methyl-imidazolidin-2-one] | 5 | 4 | 5 | 5 | 4 | 2 | 5 | 5 | 4 | 4 | 5 | 5
8 | CON1C(=O)N(c2cc(C(C)(F)F)c(Cl)nn2)C(O)C1C (stereo not drawn) [Example A12] | 5 | 5 | 5 | 5 | 5 | 3 | 5 | 5 | 3 | 3 | 5 | 5
